Measured values reported in patent US9187464B2, “TRPV4 antagonists” (GlaxoSmithKline Intellectual Property (No. 2) Limited, priority 2011, dated 2015).

target: T1, human TRPV4 (Homo sapiens, UniProt Q9HBA0); assay: Ligand-gated assay (Fluo4 calcium, FLIPR; inhibition of agonist-induced activation); type: cell-based; conditions: HEK-293-MSR-II cells transduced with BacMam human TRPV4; agonist at EC80
T1 construct: expressed in transfected cells; host or cells: HEK-293-MSR-II cells transduced with 1% BacMam virus
T1 sequence (Q9HBA0 whole entry): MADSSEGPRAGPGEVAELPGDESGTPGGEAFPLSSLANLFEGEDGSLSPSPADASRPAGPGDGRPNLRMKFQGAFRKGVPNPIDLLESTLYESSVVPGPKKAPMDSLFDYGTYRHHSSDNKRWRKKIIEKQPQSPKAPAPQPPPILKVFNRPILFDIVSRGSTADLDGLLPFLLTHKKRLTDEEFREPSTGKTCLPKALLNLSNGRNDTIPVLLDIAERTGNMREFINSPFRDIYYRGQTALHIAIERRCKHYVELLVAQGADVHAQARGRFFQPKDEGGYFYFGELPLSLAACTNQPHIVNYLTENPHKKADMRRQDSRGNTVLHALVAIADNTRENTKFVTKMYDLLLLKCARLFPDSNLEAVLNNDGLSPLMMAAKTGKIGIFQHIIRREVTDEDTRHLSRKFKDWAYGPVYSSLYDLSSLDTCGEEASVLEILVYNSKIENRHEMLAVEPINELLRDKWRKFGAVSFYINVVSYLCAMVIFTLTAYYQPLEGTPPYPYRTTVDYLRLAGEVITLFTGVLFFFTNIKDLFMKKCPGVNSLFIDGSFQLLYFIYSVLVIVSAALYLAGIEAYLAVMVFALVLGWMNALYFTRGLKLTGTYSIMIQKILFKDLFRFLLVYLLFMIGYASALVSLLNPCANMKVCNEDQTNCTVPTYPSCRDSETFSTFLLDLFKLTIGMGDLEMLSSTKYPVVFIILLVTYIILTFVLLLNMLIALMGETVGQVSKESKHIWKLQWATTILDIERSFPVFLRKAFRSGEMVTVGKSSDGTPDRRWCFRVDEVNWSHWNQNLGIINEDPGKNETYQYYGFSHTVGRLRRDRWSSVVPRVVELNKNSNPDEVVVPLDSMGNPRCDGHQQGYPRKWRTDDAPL
How it was run: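 Agonist (EC80) response read on FLIPR as Fluo-4 (2 uM) fluorescence after 10-min room-temperature compound exposure in HBSS/HEPES pH 7.4 with 0.01% Chaps. Cells: HEK-293-MSR-II expressing human TRPV4 via BacMam; output is IC50 of inhibition.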

Compound	IC50 [nM]
C[C@]1(Cn2cnc3ccc(C#N)cc32)CCC[C@@]2(CN(c3cc(C4CC4)no3)C(=O)O2)C1 [Example 34, 1-{[(5S,7S)-3-(3-cyclopropyl-5-isoxazolyl)-7-methyl-2-oxo-1-oxa-3-azaspiro[4.5]dec-7-yl]methyl}-1H-benzimidazole-6-carbonitrile]	0.1 to 10
COc1cc(OC)c(N2C[C@@]3(CCC[C@](C)(Cn4cnc5ccc(C#N)cc54)C3)OC2=O)cn1 [Example 22, 1-(((5S,7S)-3-(4,6-Dimethoxyipyridin-3-yl)-7-methyl-2-oxo-1-oxa-3-azasbiro[4.5]decan-7-yl)methyl)-1H-benzo[d]imidazole-6-carbonitrile]	0.1 to 10
CC(C)(CN1C[C@@]2(CCC[C@H](Cn3cnc4ccc(C#N)cc43)C2)OC1=O)c1nnc(-c2ccccc2)o1 [Example 5, 1-({(5S,7S)-3-[2-Methyl-2-(5-phenyl-1,3,4-oxadiazol-2-yl)propyl]-2-oxo-1-oxa-3-azaspiro[4.5]dec-7-yl}methyl)-1H-benzimidazole-6-carbonitrile]	0.1 to 10
Cc1ccc(N2C[C@@]3(CCC[C@](C)(Cn4cnc5ccc(C#N)cc54)C3)OC2=O)cn1 [Example 140, 1-(((5S,7S)-7-methyl-3-(6-methylpyridin-3-yl)-2-oxo-1-oxa-3-azaspiro[4.5]decan-7-yl)methyl)-1H-benzo[d]imidazole-6-carbonitrile]	50 to 500
N#Cc1ccc2nc(C(F)(F)F)n(C[C@H]3CCC[C@]4(C3)CN(Cc3csc5ccc(Cl)cc35)C(=O)O4)c2c1 (stereo in doubt) [Example 60, 1-({3-[(5-chloro-1-benzothien-3-yl)methyl]-2-oxo-1-oxa-3-azaspiro[4.5]dec-7-yl}methyl)-2-(trifluoromethyl)-1H-benzimidazole-6-carbonitrile]	50 to 500
CC(C)(CO)c1cnc(N2C[C@@]3(CCC[C@](C)(Cn4cnc5ccc(C#N)cc54)C3)OC2=O)cn1 [Example 168, 1-(((5S,7S)-3-(5-(1-hydroxy-2-methylpropan-2-yl)pyrazin-2-yl)-7-methyl-2-oxo-1-oxa-3-azaspiro[4.5]decan-7-yl)methyl)-1H-benzo[d]imidazole-6-carbonitrile]	10 to 50
CC1(CN2C[C@@]3(CCC[C@H](Cn4cnc5ccc(C#N)cc54)C3)OC2=O)CCN(c2ncccn2)C1 (stereo partly drawn) [Example 7, 1-[((5S,7S)-3-{[3-Methyl-1-(2-pyrimidinyl)-3-pyrrolidinyl]methyl}-2-oxo-1-oxa-3-azaspiro[4.5]dec-7-yl)methyl]-1H-benzimidazole-6-carbonitrile]	50 to 500
COc1cccnc1N1C[C@@]2(CCC[C@](C)(Cn3cnc4ccc(C#N)cc43)C2)OC1=O [Example 138, 1-({(5S,7S)-7-methyl-3-[3-(methyloxy)-2-pyridinyl]-2-oxo-1-oxa-3-azaspiro[4.5]dec-7-yl}methyl)-1H-benzimidazole-6-carbonitrile]	50 to 500
N#Cc1ccc2ncn(C[C@H]3CCC[C@]4(C3)CN(Cc3sc5ncccc5c3Br)C(=O)O4)c2c1 [Example 153]	0.1 to 10
Cn1cc(-c2ccnc(CN3C[C@@]4(CCC[C@](C)(Cn5cnc6ccc(C#N)cc65)C4)OC3=O)c2)cn1 [Example 160, 1-(((5S,7S)-7-methyl-3-((4-(1-methyl-1H-pyrazol-4-yl)pyridin-2-yl)methyl)-2-oxo-1-oxa-3-azaspiro[4.5]decan-7-yl)methyl)-1H-benzo[d]imidazole-6-carbonitrile]	0.1 to 10
N#Cc1cc(Cl)c2ncn(C[C@H]3CCC[C@]4(C3)CN(CC3(c5nc(C6CCCC6)no5)CCOCC3)C(=O)O4)c2c1 [Example 85, 4-chloro-1-[((5S,7S)-3-{[4-(3-cyclopentyl-1,2,4-oxadiazol-5-yl)tetrahydro-2H-pyran-4-yl]methyl}-2-oxo-1-oxa-3-azaspiro[4.5]dec-7-yl)methyl]-1H-benzimidazole-6-carbonitrile]	0.1 to 10
CC(C)c1noc(C(C)(C)CN2C[C@@]3(CCC[C@H](Cn4cnc5ccc(C#N)cc54)C3)OC2=O)n1 [Example 76, 1-[((5S,7S)-3-{2-methyl-2-[3-(1-methylethyl)-1,2,4-oxadiazol-5-yl]propyl}-2-oxo-1-oxa-3-azaspiro[4.5]dec-7-yl)methyl]-1H-benzimidazole-6-carbonitrile]	0.1 to 10
C[C@]1(Cn2cnc3ccc(C#N)cc32)CCC[C@@]2(CN(c3cc(C(F)(F)F)no3)C(=O)O2)C1 [Example 37, 1-({(5S,7S)-7-methyl-2-oxo-3-[3-(trifluoromethyl)-5-isoxazolyl]-1-oxa-3-azaspiro[4.5]dec-7-yl}methyl)-1H-benzimidazole-6-carbonitrile]	10 to 50
CCOc1cc(C)c(N2C[C@@]3(CCC[C@](C)(Cn4cnc5ccc(C#N)cc54)C3)OC2=O)nn1 [Example 24, 1-(((5S,7S)-3-(6-Ethoxy-4-methylpyridazin-3-yl)-7-methyl-2-oxo-1-oxa-3-azaspiro[4.5]decan-7-yl)methyl)-1H-benzo[d]imidazole-6-carbonitrile]	0.1 to 10
CCc1cccnc1N1C[C@@]2(CCC[C@](C)(Cn3cnc4ccc(C#N)cc43)C2)OC1=O [Example 129, 1-(((5S,7S)-3-(3-ethylpyridin-2-yl)-7-methyl-2-oxo-1-oxa-3-azaspiro[4.5]decan-7-yl)methyl)-1H-benzo[d]imidazole-6-carbonitrile]	10 to 50
C[C@]1(Cn2cnc3ccc(C#N)cc32)CCC[C@@]2(CN(Cc3cn(-c4ccccc4)nn3)C(=O)O2)C1 [Example 8, 1-({(5S,7S)-7-Methyl-2-oxo-3-[(1-phenyl-1H-1,2,3-triazol-4-yl)methyl]-1-oxa-3-azaspiro[4.5]dec-7-yl}methyl)-1H-benzimidazole-6-carbonitrile]	0.1 to 10
C[C@]1(Cn2cnc3ccc(C#N)cc32)CCC[C@@]2(CN(c3cc(C4(C#N)CC4)no3)C(=O)O2)C1 [Example 38, 1-({(5S,7S)-3-[3-(1-cyanocyclopropyl)-5-isoxazolyl]-7-methyl-2-oxo-1-oxa-3-azaspiro[4.5]dec-7-yl}methyl)-1H-benzimidazole-6-carbonitrile]	10 to 50
N#Cc1cc(Cl)c2ncn(C[C@H]3CCC[C@]4(C3)CN(CC3(c5nc(-c6ccccc6)no5)CCOCC3)C(=O)O4)c2c1 [Example 84, 4-chloro-1-[((5S,7S)-2-oxo-3-{[4-(3-phenyl-1,2,4-oxadiazol-5-yl)tetrahydro-2H-pyran-4-yl]methyl}-1-oxa-3-azaspiro[4.5]dec-7-yl)methyl]-1H-benzimidazole-6-carbonitrile]	0.1 to 10
CCOc1cnc(CN2C[C@@]3(CCC[C@](C)(Cn4cnc5ccc(C#N)cc54)C3)OC2=O)cn1 [Example 155]	0.1 to 10
N#Cc1ccc(-n2cc(CN3C[C@@]4(CCC[C@H](Cn5cnc6ccc(C#N)cc65)C4)OC3=O)nn2)cc1 [Example 88, 1-[((5S,7S)-3-{[1-(4-cyanophenyl)-1H-1,2,3-triazol-4-yl]methyl}-2-oxo-1-oxa-3-azaspiro[4.5]dec-7-yl)methyl]-1H-benzimidazole-6-carbonitrile]	50 to 500
N#Cc1ccc2ncn(C[C@H]3CCC[C@]4(C3)CN(Cc3cn(-c5ccc(C(F)(F)F)cc5)nn3)C(=O)O4)c2c1 [Example 102, 1-{[(5S,7S)-2-oxo-3-({1-[4-(trifluoromethyl)phenyl]-1H-1,2,3-triazol-4-yl}methyl)-1-oxa-3-azaspiro[4.5]dec-7-yl]methyl}-1H-benzimidazole-6-carbonitrile]	0.1 to 10
